What was measured:
C57BL/6J mice [1] = assay: Experiment 1: high-fat diet with selenium compounds, body mass, fat pad and liver mass; assay type: in vivo, mouse
Description: (§1) All animal studies conducted were approved by the Institutional Animal Care and Use Committee (IACUC) of the Orentreich Foundation for the Advancement of Science, Inc. (Permit Number: 0511 MB). C57BL/6J mice (stock number 000664) were purchased from the Jackson Laboratories (Bar Harbor, Me.) and housed in a conventional animal facility maintained at 20±2° C., 50±10% relative humidity, with a 12 hr/12 hr light/dark photoperiod. Food and water were provided ad libitum. Upon arrival, mice were acclimatized for up to one week and fed Purina Lab Chow 5001 (Ralston Purina, Co.; St. Louis, Mo.).
At the beginning of the experiment, the mice were divided into 5 groups with each group being fed one of five isocaloric (5.3 kcal/gm) high-fat diets ad libitum for several weeks. Each high-fat diet comprising a base of 12% kcal protein, 31% kcal carbohydrate, and 57% kcal fat. The first group's diet was the control-fed diet and included the base and methionine in an amount that represented about 0.86% of the weight of the food (sometimes referred to as “control group,” “control-fed group,” or “group 1”). The second group's diet was the methionine-restricted group where the base-diet was restricted to 0.12% methionine as a percentage of the total weight of the food (sometimes referred to as “methionine-restricted group” or “group 2”). The third group was fed the base diet containing 0.86% methionine, which was supplemented with sodium selenite in an amount representing 0.0073% of the total weight of the food (sometimes referred to as “sodium selenite-supplemented group” or “group 3”). The fourth group was fed the base diet containing 0.86% methionine, supplemented with 0.0036% selenomethionine, as a percentage of the total food weight (sometimes referred to as “group 4”). The fifth group was fed the base diet containing 0.86% methionine as a percentage of the total weight of the food, supplemented with 0.0073% selenomethionine as a percentage of the total weight of the food (sometimes referred to as “group 5”). Amounts of selenium-containing compounds used for this and subsequent experiments were determined from pilot studies aimed at identifying minimal doses that still achieve high efficacy. […] The amount of selenomethionine administered to the animals in the fourth and fifth groups was approximately 1/200 and 1/100 times respectively, of the levels of sulfur-containing amino acids (i.e., methionine and cysteine) present in the subjects' diets.
Body mass and food consumption were monitored once a week for sixteen weeks. Prior to blood collection, animals were fasted for 4 hours to establish a physiological baseline. Blood was then collected from the retro-orbital plexus and processed using EDTA-K2-coated blood collection tubes (Milian Dutscher Group; Geneva, Switzerland). The resulting plasma was frozen and stored at −80° C. until used for analysis. A portion of each blood sample was used for blood glucose determination using an Abbott Freestyle Lite glucometer and glucose strips (Abbott Diabetes Care, Inc.; Alameda, Calif.). At the end of each study, animals were fasted and bled, as described above. The mice were then sacrificed, their overall body condition was assessed, and certain physiological parameters were measured. The inguinal and perigonadal fat pads, as well as liver of each mouse, were harvested by surgical resection, weighed, flash frozen, and stored at −80° C.

C57BL/6J mice [2] = assay: Experiment 3: low-fat diet with selenomethionine, inguinal and perigonadal fat pad weight; assay type: in vivo, mouse; conditions: male mice, selenomethionine 0.00015% of food, low-fat diet (10% of calories from fat), 8 week interval, p<0.01; even more effectively than methionine restriction
Description: as §1
In this experiment, male mice were divided into three groups, with each group being fed a separate low-fat diet ad libitum for 8 weeks. The first group represented the control-fed group (CF group) and was fed a low-fat base diet that included 0.86% methionine as a percentage of total food. The second group was fed a methionine-restricted diet (MR group) where the amount of methionine was restricted to 0.12% of total consumed. The third group was fed the base diet supplemented with selenomethionine (SMS group) in an amount representing 0.00015% of total food consumed.
FIGS. 9A and 9B depict the reduced white adipose tissue accumulation of the SMS group as compared with the MR group and the CF group. […]

[3] = female mice, high-fat diet, untreated = 100%, sodium selenite 0.0073% of food, selenomethionine 0.0036% or 0.0073% (which not stated)
[4] = male mice, high-fat diet, untreated = 100%, sodium selenite 0.0073% of food, selenomethionine 0.0036% or 0.0073% (which not stated)

Question: Which results are given for C[Se]CC[C@H](N)C(=O)O [Selenomethionine, selenomethionine]?
Answer: Inguinal Fat Mass, Females (C57BL/6J mice [1]; [3]): 48%; Perigonadal Fat Mass, Females (C57BL/6J mice [1]; [3]): 55%; Total Body Mass, Females (C57BL/6J mice [1]; female mice, high-fat diet, untreated = 100%, sodium selenite 0.0073% of food, selenomethionine 0.0036% or 0.0073% (which not stated), 16 weeks): 79%; Inguinal Fat Mass, Males (C57BL/6J mice [1]; [4]): 54%; Perigonadal Fat Mass, Males (C57BL/6J mice [1]; [4]): 60%; Total Body Mass, Males (C57BL/6J mice [1]; male mice, high-fat diet, untreated = 100%, sodium selenite 0.0073% of food, selenomethionine 0.0036% or 0.0073% (which not stated), 16 weeks): 84%; overall body mass / diet-induced obesity (C57BL/6J mice [1]; male mice, selenomethionine 0.0036% and 0.0073% of food, high-fat diet, vs control-fed littermates): dose-dependent protection against diet-induced obesity; inguinal and perigonadal adipose tissue (C57BL/6J mice [1]; male mice, selenomethionine-supplemented high-fat diet): less inguinal and perigonadal adipose tissue; liver mass (C57BL/6J mice [1]; selenomethionine-supplemented vs control animals, high-fat diet): not significantly different; accumulation of inguinal and perigonadal adipose tissue (FIGS. 9A, 9B) (C57BL/6J mice [2]): robust protection against the accumulation of adipose tissue

Reference: patent US20220105127A1, “METHODS FOR PROVIDING THE BENEFITS OF METHIONINE RESTRICTION WITHOUT DIETARY RESTRICTION” (priority 2020, published 2022)
